Measurements as given in ChEMBL document CHEMBL2440027, “Further SAR studies on bicyclic basic merbarone analogues as potent antiproliferative agents” (Bioorg Med Chem, 2013).

Assays:
[1] = tested on: A498; test: Growth inhibition of human A498 cells assessed as cell growth at 10 uM after 48 hrs by sulforhodamine B assay relative to control; format: functional; settings: A498, 48 h, read-out: Activity
[2] = tested on: OVCAR-8; test: Growth inhibition of human OVCAR8 cells assessed as cell growth at 10 uM after 48 hrs by sulforhodamine B assay relative to control; format: functional; settings: OVCAR-8, 48 h, read-out: Activity
[3] = tested on: SK-MEL-5; test: Growth inhibition of human SK-MEL-5 cells assessed as cell growth at 10 uM after 48 hrs by sulforhodamine B assay relative to control; format: functional; settings: SK-MEL-5, 48 h, read-out: Activity
[4] = tested on: SNB-19; test: Growth inhibition of human SNB19 cells assessed as cell growth at 10 uM after 48 hrs by sulforhodamine B assay relative to control; format: functional; settings: SNB-19, 48 h, read-out: Activity
[5] = tested on: HCT-116; test: Growth inhibition of human HCT116 cells assessed as cell growth at 10 uM after 48 hrs by sulforhodamine B assay relative to control; format: functional; settings: HCT-116, 48 h, read-out: Activity
[6] = Growth inhibition of human HCC2998 cells assessed as cell growth at 10 uM after 48 hrs by sulforhodamine B assay relative to control; format: functional; settings: HCC 2998, 48 h, read-out: Activity
[7] = tested on: COLO 205; test: Growth inhibition of human COLO205 cells assessed as cell growth at 10 uM after 48 hrs by sulforhodamine B assay relative to control; format: functional; settings: COLO 205, 48 h, read-out: Activity
[8] = tested on: NCI-H322M; test: Growth inhibition of human NCI-H322M cells assessed as cell growth at 10 uM after 48 hrs by sulforhodamine B assay relative to control; format: functional; settings: read-out: Activity
[9] = tested on: NCI-H23; test: Growth inhibition of human NCI-H23 cells assessed as cell growth at 10 uM after 48 hrs by sulforhodamine B assay relative to control; format: functional; settings: NCI-H23, 48 h, read-out: Activity
[10] = tested on: NCI-H226; test: Growth inhibition of human NCI-H226 cells assessed as cell growth at 10 uM after 48 hrs by sulforhodamine B assay relative to control; format: functional; settings: NCI-H226, 48 h, read-out: Activity
[11] = tested on: HOP-62; test: Growth inhibition of human HOP62 cells assessed as cell growth at 10 uM after 48 hrs by sulforhodamine B assay relative to control; format: functional; settings: HOP-62, 48 h, read-out: Activity
[12] = tested on: A549; test: Growth inhibition of human A549/ATCC cells assessed as cell growth at 10 uM after 48 hrs by sulforhodamine B assay relative to control; format: functional; settings: A549, 48 h, read-out: Activity
[13] = tested on: MOLT-4; test: Growth inhibition of human MOLT4 cells assessed as cell growth at 10 uM after 48 hrs by sulforhodamine B assay relative to control; format: functional; settings: MOLT-4, 48 h, read-out: Activity
[14] = tested on: CCRF-CEM; test: Growth inhibition of human CCRF-CEM cells assessed as cell growth at 10 uM after 48 hrs by sulforhodamine B assay relative to control; format: functional; settings: read-out: Activity
[15] = tested on: MT4; test: Cytotoxicity against human MT4 cells; format: functional, cell-based
[16] = tested on: MCF7; test: Growth inhibition of human MCF7 cells after 48 hrs by sulforhodamine B assay; format: functional; settings: MCF7, 48 h; for CC50: read-out: LC50 (the source's name)
[17] = tested on: PC-3; test: Growth inhibition of human PC3 cells after 48 hrs by sulforhodamine B assay; format: functional; settings: PC-3, 48 h
[18] = tested on: SN12C; test: Growth inhibition of human SN12C cells after 48 hrs by sulforhodamine B assay; format: functional; settings: for CC50: read-out: LC50 (the source's name)
[19] = tested on: CAKI-1; test: Growth inhibition of human CAKI-1 cells after 48 hrs by sulforhodamine B assay; format: functional; settings: CAKI-1, 48 h
[20] = tested on: ACHN; test: Growth inhibition of human ACHN cells after 48 hrs by sulforhodamine B assay; format: functional
[21] = tested on: 786-0; test: Growth inhibition of human 786-0 cells after 48 hrs by sulforhodamine B assay; format: functional; settings: 786-0, 48 h
[22] = Growth inhibition of human NCI-ADR-RES cells after 48 hrs by sulforhodamine B assay; format: functional; settings: for CC50: read-out: LC50 (the source's name)
[23] = tested on: OVCAR-8; test: Growth inhibition of human OVCAR8 cells after 48 hrs by sulforhodamine B assay; format: functional; settings: OVCAR-8, 48 h
[24] = tested on: OVCAR-5; test: Growth inhibition of human OVCAR5 cells after 48 hrs by sulforhodamine B assay; format: functional; settings: OVCAR-5, 48 h; for CC50: read-out: LC50 (the source's name)
[25] = tested on: Malme-3M; test: Growth inhibition of human MALME-3M cells after 48 hrs by sulforhodamine B assay; format: functional; settings: for CC50: read-out: LC50 (the source's name)
[26] = tested on: LOX IMVI; test: Growth inhibition of human LOXIMVI cells after 48 hrs by sulforhodamine B assay; format: functional
[27] = tested on: HCT-15; test: Growth inhibition of human HCT15 cells after 48 hrs by sulforhodamine B assay; format: functional; settings: HCT-15, 48 h
[28] = tested on: COLO 205; test: Growth inhibition of human COLO205 cells after 48 hrs by sulforhodamine B assay; format: functional; settings: COLO 205, 48 h; for CC50: read-out: LC50 (the source's name)
[29] = tested on: NCI-H226; test: Growth inhibition of human NCI-H226 cells after 48 hrs by sulforhodamine B assay; format: functional; settings: NCI-H226, 48 h
[30] = tested on: HOP-62; test: Growth inhibition of human HOP62 cells after 48 hrs by sulforhodamine B assay; format: functional; settings: HOP-62, 48 h
[31] = Growth inhibition of human EKVX cells after 48 hrs by sulforhodamine B assay; format: functional; settings: for CC50: read-out: LC50 (the source's name)
[32] = tested on: HL-60(TB); test: Growth inhibition of human HL-60(TB) cells after 48 hrs by sulforhodamine B assay; format: functional; settings: HL-60, 48 h
[33] = tested on: MDA-MB-231; test: Growth inhibition of human MDA-MB-231 cells assessed as cell growth at 10 uM after 48 hrs by sulforhodamine B assay relative to control; format: functional; settings: MDA-MB-231, 48 h, read-out: Activity
[34] = tested on: MCF7; test: Growth inhibition of human MCF7 cells assessed as cell growth at 10 uM after 48 hrs by sulforhodamine B assay relative to control; format: functional; settings: MCF7, 48 h, read-out: Activity
[35] = tested on: DU-145; test: Growth inhibition of human DU145 cells assessed as cell growth at 10 uM after 48 hrs by sulforhodamine B assay relative to control; format: functional; settings: DU-145, 48 h, read-out: Activity

CN(C)CCNc1nc2c(c(=N)n1-c1ccccc1)c(=S)n(-c1ccccc1)c(=S)n2-c1ccccc1
growth at 10 µM [1]: 40.3% | growth at 10 µM [2]: 33.6% | growth at 10 µM [3]: -98.8% | growth at 10 µM [4]: 26.1% | growth at 10 µM [5]: -22.1% | growth at 10 µM [6]: -39.6% | growth at 10 µM [7]: 6.65% | growth at 10 µM [8]: 58.5% | growth at 10 µM [9]: 67.6% | growth at 10 µM [10]: 82.3% | growth at 10 µM [11]: 6.19% | growth at 10 µM [12]: 35.4% | growth at 10 µM [13]: 3.92% | growth at 10 µM [14]: -8.26% | IC50 [15]: 8.4 µM | GI50 [16]: 2.2 µM | TGI [16]: 10.9 µM | CC50 [16]: 48.8 µM | GI50 [17]: 4 µM | LC50 (50% lethal concentration) [17]: 51.9 µM | TGI [17]: 17.9 µM | GI50 [18]: 6.2 µM | TGI [18]: 19.9 µM | CC50 [18]: 48 µM | GI50 [19]: 3.6 µM | LC50 [19]: 72 µM | TGI [19]: 17.6 µM | GI50 [20]: 3.2 µM | LC50 [20]: 34.1 µM | TGI [20]: 11.3 µM | GI50 [21]: 1.4 µM | LC50 [21]: 21.4 µM | TGI [21]: 4.3 µM | GI50 [22]: 10.5 µM | TGI [22]: 31 µM | CC50 [22]: 91 µM | GI50 [23]: 4.1 µM | TGI [23]: 15.7 µM | CC50 ([23]; read-out: LC50 (the source's name)): 58.7 µM | GI50 [24]: 12.1 µM | TGI [24]: 29.5 µM | CC50 [24]: 72.1 µM | GI50 [25]: 2.6 µM | TGI [25]: 5 µM | CC50 [25]: 9.5 µM | GI50 [26]: 1.4 µM | LC50 (concentration killing 50% of cells) [26]: 5.3 µM | TGI [26]: 2.7 µM | GI50 [27]: 1.4 µM | LC50 [27]: 17.7 µM | TGI [27]: 4.5 µM | GI50 [28]: 1.6 µM | TGI [28]: 3.8 µM | CC50 [28]: 9.1 µM | GI50 [29]: 11.6 µM | LC50 [29]: 59.5 µM | TGI [29]: 26.3 µM | GI50 [30]: 2.9 µM | LC50 [30]: 55.6 µM | TGI [30]: 10.1 µM | GI50 [31]: 12.1 µM | TGI [31]: 32.2 µM | CC50 [31]: 85.8 µM | GI50 [32]: 1.5 µM | LC50 [32]: 7.1 µM | TGI [32]: 3.3 µM | growth at 10 µM [33]: -13% | growth at 10 µM [34]: 17.9% | growth at 10 µM [35]: 45%

CCCCN(CCCC)CCCNc1nc2c(c(=N)n1-c1ccccc1)c(=S)n(-c1ccccc1)c(=S)n2-c1ccccc1
growth at 10 µM [1]: -100% | growth at 10 µM [2]: -36.1% | growth at 10 µM [3]: -100% | growth at 10 µM [4]: -87.4% | growth at 10 µM [5]: -25% | growth at 10 µM [6]: -91.5% | growth at 10 µM [7]: -74.1% | growth at 10 µM [8]: -57.8% | growth at 10 µM [9]: -56.3% | growth at 10 µM [10]: -82.5% | growth at 10 µM [11]: -99.5% | growth at 10 µM [12]: -38.4% | growth at 10 µM [13]: -55.8% | growth at 10 µM [14]: -78.4% | IC50 [15]: 1.6 µM | GI50 [16]: 0.3 µM | TGI [16]: 1.3 µM | CC50 [16]: 3.6 µM | GI50 [17]: 0.6 µM | LC50 (50% lethal concentration) [17]: 4.6 µM | TGI [17]: 1.9 µM | GI50 [18]: 1.2 µM | TGI [18]: 2.4 µM | CC50 [18]: 4.9 µM | GI50 [19]: 0.1 µM | LC50 [19]: 3.1 µM | TGI [19]: 0.8 µM | GI50 [20]: 0.5 µM | LC50 [20]: 4.1 µM | TGI [20]: 1.6 µM | GI50 [21]: 0.2 µM | LC50 [21]: 0.8 µM | TGI [21]: 0.4 µM | GI50 [22]: 1.6 µM | TGI [22]: 3.3 µM | CC50 [22]: 8.1 µM | GI50 [23]: 0.9 µM | TGI [23]: 2.7 µM | GI50 [24]: 1.4 µM | TGI [24]: 2.8 µM | CC50 [24]: 5.5 µM | GI50 [25]: 0.2 µM | TGI [25]: 0.5 µM | CC50 [25]: 1.5 µM | GI50 [26]: 0.2 µM | LC50 (concentration killing 50% of cells) [26]: 0.6 µM | TGI [26]: 0.3 µM | GI50 [27]: 0.3 µM | LC50 [27]: 3.4 µM | TGI [27]: 1.1 µM | GI50 [28]: 0.2 µM | TGI [28]: 1.4 µM | CC50 [28]: 6 µM | GI50 [29]: 1.4 µM | LC50 [29]: 5.5 µM | TGI [29]: 2.8 µM | GI50 [30]: 1.2 µM | LC50 [30]: 5.4 µM | TGI [30]: 2.6 µM | GI50 [31]: 0.4 µM | TGI [31]: 1.9 µM | CC50 [31]: 4.7 µM | GI50 [32]: 0.2 µM | growth at 10 µM [33]: -89.1% | growth at 10 µM [34]: -88% | growth at 10 µM [35]: -100%
